Test results reported in ChEMBL document CHEMBL1201862, “PubChem BioAssay data set” (2004).
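These data come from cells grown in 96-well plates and exposed to compound for 48 hours at five concentrations. At the GI50, growth is halved.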 Calls of active or inactive are those of the source. Cut-off read from the data, not from the text of the source: active = GI50 up to about 1.1 µM and inactive = higher.

What was measured:
Test in all cases: growth of human tumour cells (NCI), 48 h
SN12C = system: SN12C
TK-10 = system: TK-10
HL-60 = system: HL-60
MDA-N = system: MDA-N
CCRF-CEM = system: CCRF-CEM
RPMI-8226 = system: RPMI-8226
Malme-3M = system: Malme-3M
NCI/ADR-RES = system: NCI/ADR-RES
CAKI-1 = system: CAKI-1
SR = system: SR
MOLT-4 = system: MOLT-4
EKVX = system: EKVX
UO-31 = system: UO-31
T47D = system: T47D
HCC 2998 = system: HCC 2998
SNB-75 = system: SNB-75
LOX IMVI = system: LOX IMVI
NCI-H522 = system: NCI-H522
NCI-H226 = system: NCI-H226
Hs-578T = system: Hs-578T

Structure (SMILES) | GI50 (SN12C) | GI50 (TK-10) | GI50 (HL-60) | GI50 (MDA-N) | GI50 (CCRF-CEM) | GI50 (RPMI-8226) | GI50 (Malme-3M) | GI50 (NCI/ADR-RES) | GI50 (CAKI-1) | GI50 (SR) | GI50 (MOLT-4) | GI50 (EKVX) | GI50 (UO-31) | GI50 (T47D) | GI50 (HCC 2998) | GI50 (SNB-75) | GI50 (LOX IMVI) | GI50 (NCI-H522) | GI50 (NCI-H226) | GI50 (Hs-578T)
CSc1ccc2c(cc1=O)[C@@H](NC(C)=O)CCc1cc(O)c(O)c(O)c1-2 | 20.2 µM (inactive) | 18.8 µM (inactive) | 37.8 µM (inactive) | 11.3 µM (inactive) | 4.98 µM (inactive) | 12.9 µM (inactive) | 57 µM (inactive) | 19.9 µM (inactive) | 48.4 µM (inactive) | 7.8 µM (inactive) | 13.2 µM (inactive) | 31.9 µM (inactive) | 21.6 µM (inactive) | 60.4 µM (inactive) | 23 µM (inactive) | 14.3 µM (inactive) | 23 µM (inactive) | 16.2 µM (inactive) | 15.4 µM (inactive) | 
COc1ccc2[nH]c3c(C)c4cc[n+](C)cc4c(C)c3c2c1 | 0.0834 µM (active) |  | 14.9 µM (inactive) |  | 1.14 µM (inactive) |  | 0.733 µM (active) | 19.3 µM (inactive) |  |  |  | 0.738 µM (active) | 38.5 µM (inactive) |  | 1.92 µM (inactive) | 0.121 µM (active) | 6.21 µM (inactive) | 0.548 µM (active) | 0.232 µM (active) | 0.125 µM (active)
CC1=[N+]([O-])C(C)(C)N(N=O)C1(C)C | > 10 µM (inactive) | > 10 µM (inactive) | > 10 µM (inactive) | > 10 µM (inactive) | > 10 µM (inactive) | > 10 µM (inactive) | > 10 µM (inactive) | > 10 µM (inactive) | > 10 µM (inactive) |  | > 10 µM (inactive) | > 10 µM (inactive) | > 10 µM (inactive) | > 10 µM (inactive) | > 10 µM (inactive) |  |  | > 10 µM (inactive) | > 10 µM (inactive) | 
CC1(C)OC2OC(COC(=O)C=[N+]=[N-])C3OC(C)(C)OC3C2O1 (centres undefined) | > 100 µM (inactive) | > 100 µM (inactive) | > 100 µM (inactive) | > 100 µM (inactive) | > 100 µM (inactive) | > 100 µM (inactive) | > 100 µM (inactive) |  | > 100 µM (inactive) | > 100 µM (inactive) | > 10 µM (inactive) | > 100 µM (inactive) | > 100 µM (inactive) |  | > 100 µM (inactive) |  | > 100 µM (inactive) | > 100 µM (inactive) | > 100 µM (inactive) | 
COC(=O)C(Cc1cn(C(C)n2cc(CC(NC(C)=O)C(=O)OC)c3ccccc32)c2ccccc12)NC(C)=O (centres undefined) | > 100 µM (inactive) | > 100 µM (inactive) |  | > 100 µM (inactive) | 42.5 µM (inactive) | 83.9 µM (inactive) | 13.7 µM (inactive) |  | > 100 µM (inactive) | 37.6 µM (inactive) | 34 µM (inactive) | 25.5 µM (inactive) | 66.4 µM (inactive) |  | > 100 µM (inactive) | 0.116 µM (active) |  | 12.2 µM (inactive) |  | 12.5 µM (inactive)
O=Nc1c(-c2c(O)[nH]c3ccc(I)cc23)[nH]c2ccccc12 | 3.72 µM (inactive) | 5.38 µM (inactive) | 2.61 µM (inactive) | 4.97 µM (inactive) | 2.08 µM (inactive) | 1.88 µM (inactive) |  | 8.2 µM (inactive) | 2.45 µM (inactive) |  |  | 2.96 µM (inactive) | 2.19 µM (inactive) |  | 2.31 µM (inactive) | 5.33 µM (inactive) | 2.45 µM (inactive) | 2.82 µM (inactive) |  | 
COC(=O)/C=C1\SC2(O\C1=N/c1ccccc1)C1CC3CC(C1)CC2C3 (centres undefined) | > 100 µM (inactive) | > 100 µM (inactive) | > 100 µM (inactive) | > 100 µM (inactive) | > 100 µM (inactive) | > 100 µM (inactive) |  | > 100 µM (inactive) | > 100 µM (inactive) | > 100 µM (inactive) | > 100 µM (inactive) | > 100 µM (inactive) | > 100 µM (inactive) |  |  | > 100 µM (inactive) | > 100 µM (inactive) | > 100 µM (inactive) | > 100 µM (inactive) | > 100 µM (inactive)
COc1cc(C(=O)Nc2cc(C(N)=O)cc(OC)c2OC)cc(NC(=O)/C=C/c2ccccc2)c1OC | 18.6 µM (inactive) | > 100 µM (inactive) | 96.4 µM (inactive) | > 100 µM (inactive) | 55.5 µM (inactive) | 44 µM (inactive) | 2.63 µM (inactive) | > 100 µM (inactive) |  | 20.4 µM (inactive) | 52.4 µM (inactive) | > 100 µM (inactive) | > 100 µM (inactive) |  |  | 1.71 µM (inactive) |  | 3.43 µM (inactive) |  | 
COc1cccc2c1C(=O)c1c(O)c3c(c(O)c1C2=O)CC(O)(C(O)CO)CC3OC1CC(N2CCOCC2)C(O)C(C)O1 (centres undefined) | 0.00205 µM (active) | 0.00377 µM (active) |  | 0.0143 µM (active) | 0.00849 µM (active) | 0.00378 µM (active) | 0.00251 µM (active) | 0.0162 µM (active) | 0.00175 µM (active) | 0.00214 µM (active) |  | 0.00386 µM (active) |  |  | < 0.001 µM (active) | 0.00388 µM (active) |  | 0.00273 µM (active) | 0.0118 µM (active) | 0.0146 µM (active)
Cc1cc(-c2ccc(C(=O)C(Cl)(Cl)Cl)[nH]2)on1 | 16.4 µM (inactive) | 27.4 µM (inactive) | 21.1 µM (inactive) | 34.2 µM (inactive) | 27.2 µM (inactive) | 8.51 µM (inactive) | 73.1 µM (inactive) | 29.3 µM (inactive) | 18.1 µM (inactive) |  | 2.95 µM (inactive) | 35.1 µM (inactive) | 22.3 µM (inactive) | 52.2 µM (inactive) |  | 31.3 µM (inactive) | 24.9 µM (inactive) | 21.2 µM (inactive) | 22.4 µM (inactive) | 
N#CC(C#N)=C1/C(=C/C=C/C=C/C=C/c2ccc(N3CCCCC3)s2)S(=O)(=O)c2ccccc21 | > 100 µM (inactive) | 81.3 µM (inactive) | > 100 µM (inactive) |  | 71.6 µM (inactive) | 36.4 µM (inactive) |  | > 100 µM (inactive) | > 100 µM (inactive) | 50.5 µM (inactive) | 14.9 µM (inactive) | > 100 µM (inactive) |  | 80.9 µM (inactive) | > 100 µM (inactive) | > 100 µM (inactive) | > 100 µM (inactive) | 22.1 µM (inactive) | > 100 µM (inactive) | 
Cc1c(/C=N/N(C)C)oc2c1cc(O)c1ncccc12 | 3.96 µM (inactive) | 28.8 µM (inactive) | 2.13 µM (inactive) |  | 1.27 µM (inactive) | 5.05 µM (inactive) | 11.2 µM (inactive) |  | 4.03 µM (inactive) | 2.77 µM (inactive) | 2.59 µM (inactive) | 2.11 µM (inactive) | 2.08 µM (inactive) |  | 14 µM (inactive) | 6.92 µM (inactive) | 4.5 µM (inactive) | 2.38 µM (inactive) | 13.2 µM (inactive) | 
C=C(N=[N+]=[N-])c1cn(C2CC(O)C(CO)O2)c(=O)[nH]c1=O (centres undefined) | > 100 µM (inactive) | > 100 µM (inactive) | > 100 µM (inactive) |  | > 100 µM (inactive) | > 100 µM (inactive) | > 100 µM (inactive) |  | > 100 µM (inactive) | > 100 µM (inactive) | > 100 µM (inactive) | > 100 µM (inactive) | > 100 µM (inactive) |  | > 100 µM (inactive) | > 100 µM (inactive) | > 100 µM (inactive) | > 100 µM (inactive) | > 100 µM (inactive) | 
